Experimental data published in patent US4518611A, “2-Furylbutyrolactone modulation of the immune system in mammals” (priority 1983, dated 1985).
“Also recorded” adds a separate entry of the source.

Assays:
spleen lymphocytes [1] = experiment: In vitro lymphocyte stimulation assay, C57BL/6 spleen lymphocytes; format: cell-based, mouse
Description: (§1) The purpose of this assay is to challenge lymphocytes in microcultures with one or more polyclonal mitogens at concentrations that will induce mitogenesis within 72 hours of stimulation.
(§2) In the mouse model, spleens are removed from different strains of mice and the spleen cells are teased free and suspended in RPMI-1640 tissue culture medium at a concentration of usually […]. These cells are dispensed at a concentration of 5.0×10^5 cells per microculture well in a 96 well flat bottom 96 well tissue culture plate. All testing of the compounds of this invention or mitogens are done in replicates of 10. The cells are then treated with PHA, Con-A, specific antigens, or buffer only. If in vitro testing is done, varying concentrations of the compounds of this invention or buffer only are added to the cells as well. After treatment with the mitogens and/or compounds of this invention, the cells are incubated for 72 hours. The response of these cells to mitogens and/or the compounds of this invention is assessed using ^14 C-thymidine labeling on the fourth day at a concentration of 0.01 μCi/well. The labeled cells are harvested using a lymphocyte harvestor and placed onto fibrous paper discs. A scintillation cocktail is added to vials containing the discs and the results are obtained using a LKB-liquid scintillation counter (Model 1216/Rackbeta II). The data is expressed as a ratio of the cpm of the mitogen stimulated group to the control (nonmitogen) treated group=lymphocyte stimulation index (LSI).
(§3) The lymphocyte stimulation assay may be performed directly on spleen cells obtained from various strains of mice not treated with the compounds of this invention or on lymphocytes obtained from human […]. […] Alternatively, the mice may be treated in vivo with the compounds of this invention by intraperitoneal multi-dose schedules, followed by sacrifice and harvesting spleen lymphocytes. These cells are then tested for their response to polyclonal mitogens or specific antigens used to immunize the mice. In this system however, no additional compound is added to the in vitro lymphocyte stimulation assay system.
An in vitro lymphocyte stimulation assay is performed directly on normal spleen lymphocytes removed from five normal C57BL/6 mice, using concentrations of Cpd. […] Following three days of incubation the assay is completed.
An in vitro lymphocyte stimulation assay was performed using spleen lymphocytes from normal C57BL/6 mice. The lymphocytes were treated with either 1, 5, 10, 50 or 100 μg/well of Cpd. 1 or buffer.
Cpd. 2 was tested using normal spleen lymphocytes from C57BL/6 mice. A lymphocyte stimulation assay was conducted using either 1, 5, 10, 50, or 100 μg/well […] or just buffer.
Spleen cells from C57BL/6 mice were treated, in vitro, with the crystallizing reagents, succinic acid and succinimide. Since these compounds are spontaneously released from the molecular complex in solution at a molar ratio of 2 moles of Cpds. 1, 2, or 3 per mole of the crystalline reagent, these reagents were treated in the lymphocyte stimulation assay at proper molar concentrations.
The compound of example 3, Cpd. 3, was used to treat C57BL/6 spleen lymphocytes in vitro. The lymphocytes were treated with either 1, 5, 10, 50, or 100 μg/well of Cpd. 3 or just buffer and then a lymphocyte stimulation assay was performed.

spleen lymphocytes [2] = experiment: Lymphocyte stimulation assay after in vivo treatment, C57BL/6 mice; settings: 4 days
Description: as §1, §2, §3
Two strains of mice, C57BL/6 and BDF1 are treated for seven days with i.p. administration of either 25, 50, 100, 200, or 400 mg/kg of Cpd. 1 or just buffer. This is followed on the eighth day by a lymphocyte stimulation assay.
A comparison is made of the lymphocyte response of C57BL/6 mice treated 4 days with i.p. administration of either 50, 100, 200, 400 or 800 mg/kg of Cpd. 1, 50, 100, 200, 400 or 800 mg/kg of ascorbic acid (AA), or just buffer. This is followed on the fifth day by a lymphocyte stimulation assay.
Two strains of mice, C57BL/6 and BALB/c, are treated 4 days with i.p. administration of either 50, 100, 200, or 400 mg/kg of Cpd. 1, or just buffer. This is followed on the fifth day by a lymphocyte stimulation assay.
C57BL/6 mice were treated with four daily i.p. doses of either 50, 100, 200, or 400 mg/kg of Cpd. 1 or just buffer. On the fifth day a lymphocyte stimulation assay was performed.
Mice of the C57BL/6 strain were tested with i.p. administration of either 100, 200, 400 or 600 mg/kg of Cpd. 1 or just buffer. This was followed by removal of spleens and treatment of lymphocytes therein with mitogens PHA and Con-A.
The compound of Example 2, Cpd. 2, was tested in vivo by using C57BL/6 mice and treating them with […] or just buffer for four consecutive days by the i.p. route. On the fifth day a lymphocyte stimulation assay was performed.

human lymphocytes = experiment: In vitro lymphocyte stimulation assay, human lymphocytes; format: cell-based; design: key to Lymphocyte Stimulation Index, PHA / Lymphocyte Stimulation Index, Con-A: LSI = cpm of mitogen-stimulated group / cpm of control group
Description: as §1, §2, §3
Lymphocytes isolated from 5 human volunteers are treated in vitro with PHA and Con-A and either 0.1, 1, 10, 50, or 100 μg/well of Cpd. 1, 0.1, 1, 10, 50, or 100 μg/well of AA, or buffer.

L-1210 leukemia cells = experiment: Treatment of L-1210 leukemia in BDF1 mice (T/C ratios); format: in vivo, mouse; settings: 20 mg/kg, seven days
Text: Mice of the BDF1 strain are given in i.p. inoculation of 10^6 L-1210 leukemia cells on day 0. Twenty-four hours later, groups of 7 mice each are started on a nine day treatment regimen of various doses of the compounds of this invention. The experiment is continued according to the guidelines provided under the National Cancer Institute protocol for screening new anti-cancer agents and T/C ratios (median or mean survival time of treated groups over median or mean survival time of controls) are calculated. A T/C value ≥1.25 (or 125%) is considered significant anticancer activity.
(§4) Mice of the BDF1 strain, inoculated with L-1210 leukemia cells, are treated for seven days with either 25, 50, 100, 200 or 400 mg/kg of Cpd. 1 or just buffer. The National Cancer Institute protocol for screening new anti-cancer agents is followed and T/C ratios are calculated.
as §4, with “either 100” for “either 25, 50, 100, 200 or 400”, “Cpd. 1, 20 mg/kg of 5-flourouracil (5-FU), a known anti-cancer agent,” for “Cpd. 1”

O=C(O)CCC(=O)O [Succinic Acid, succinic acid, reference compound]
effect on PHA and Con-A mitogenesis (in words) (spleen lymphocytes [1]; in vitro): a decrease in PHA and Con-A mitogenesis with increased succinic acid dosage

CN1C(=O)CCC1=O.Cc1ccc(C2(O)C(=O)OC3C(O)COC32O)o1.Cc1ccc(C2(O)C(=O)OC3C(O)COC32O)o1 (centres unmarked) [Cpd. 3, 2-furylbutyrolactone:N-methylsuccinimide]
Lymphocyte Stimulation Index, Control (no mitogen) (spleen lymphocytes [1]; 1 μg/well): .60 | Lymphocyte Stimulation Index, Control (no mitogen) (spleen lymphocytes [1]; 5 μg/well): .64 | Lymphocyte Stimulation Index, Control (no mitogen) (spleen lymphocytes [1]; 10 μg/well): .47 | Lymphocyte Stimulation Index, PHA (spleen lymphocytes [1]; 10 μg/well): 24.0 | Lymphocyte Stimulation Index, Control (no mitogen) (spleen lymphocytes [1]; 50 μg/well): .27 | Lymphocyte Stimulation Index, Control (no mitogen) (spleen lymphocytes [1]; 100 μg/well): .25 | effect on Con-A response (in words) (spleen lymphocytes [1]; in vitro, Con-A): The 50 μg/well dose slightly stimulated the response to Con-A; also recorded: the 100 μg/well dose suppressed the response | effect on PHA response (in words) (spleen lymphocytes [1]; in vitro, PHA): The 10 μg/well dose of Cpd. 3 significantly stimulated the response to PHA; also recorded: the 50 and 100 μg/well doses suppressed the response

O=C1O[C@H]([C@@H](O)CO)C(O)=C1O [AA, ascorbic acid, reference compound]
Lymphocyte Stimulation Index, Con-A (spleen lymphocytes [2]; 50 mg/kg i.p.): 25.5 | Lymphocyte Stimulation Index, Control (no mitogen) (spleen lymphocytes [2]; 50 mg/kg i.p.): .56 | Lymphocyte Stimulation Index, PHA (spleen lymphocytes [2]; 50 mg/kg i.p.): 17.1 | Lymphocyte Stimulation Index, Con-A (spleen lymphocytes [2]; 100 mg/kg i.p.): 19.8 | Lymphocyte Stimulation Index, Control (no mitogen) (spleen lymphocytes [2]; 100 mg/kg i.p.): 1.8 | Lymphocyte Stimulation Index, PHA (spleen lymphocytes [2]; 100 mg/kg i.p.): 17.1 | Lymphocyte Stimulation Index, Con-A (spleen lymphocytes [2]; 200 mg/kg i.p.): 21.1 | Lymphocyte Stimulation Index, Control (no mitogen) (spleen lymphocytes [2]; 200 mg/kg i.p.): 1.3 | Lymphocyte Stimulation Index, PHA (spleen lymphocytes [2]; 200 mg/kg i.p.): 10.0 | Lymphocyte Stimulation Index, Con-A (spleen lymphocytes [2]; 400 mg/kg i.p.): 17.8 | Lymphocyte Stimulation Index, Control (no mitogen) (spleen lymphocytes [2]; 400 mg/kg i.p.): 1.3 | Lymphocyte Stimulation Index, PHA (spleen lymphocytes [2]; 400 mg/kg i.p.): 14.3 | Lymphocyte Stimulation Index, Con-A (spleen lymphocytes [2]; 800 mg/kg i.p.): 23.9 | Lymphocyte Stimulation Index, Control (no mitogen) (spleen lymphocytes [2]; 800 mg/kg i.p.): .50 | Lymphocyte Stimulation Index, PHA (spleen lymphocytes [2]; 800 mg/kg i.p.): 12.1 | effect on Con-A response (in words) (spleen lymphocytes [2]; i.p., Con-A): a single stimulation of proliferation did occur at 50 mg/kg | effect on PHA response (in words) (spleen lymphocytes [2]; i.p., PHA): No statistically significant measurable effect | Lymphocyte Stimulation Index, Con-A (human lymphocytes; 0.1 μg/well): 24.37 | Lymphocyte Stimulation Index, PHA (human lymphocytes; 0.1 μg/well): 38.29 | Lymphocyte Stimulation Index, Con-A (human lymphocytes; 1.0 μg/well): 24.76 | Lymphocyte Stimulation Index, PHA (human lymphocytes; 1.0 μg/well): 34.69 | Lymphocyte Stimulation Index, Con-A (human lymphocytes; 10 μg/well): 27.35 | Lymphocyte Stimulation Index, PHA (human lymphocytes; 10 μg/well): 35.10 | Lymphocyte Stimulation Index, Con-A (human lymphocytes; 50 μg/well): 23.31 | Lymphocyte Stimulation Index, PHA (human lymphocytes; 50 μg/well): 35.93 | Lymphocyte Stimulation Index, Con-A (human lymphocytes; 100 μg/well): 25.18 | Lymphocyte Stimulation Index, PHA (human lymphocytes; 100 μg/well): 34.23 | effect on lymphocyte response (in words) (human lymphocytes; in vitro, PHA and Con-A): no significant proliferative or anti-proliferative effect

O=c1[nH]cc(F)c(=O)[nH]1 [5-FU, 5-flourouracil, reference compound]
Median Survival Time (L-1210 leukemia cells): 30 | T/C (L-1210 leukemia cells): 1.50

O=C1CCC(=O)N1 [Succinimide, succinimide, reference compound]
Lymphocyte Stimulation Index, Control (no mitogen) (spleen lymphocytes [1]; 13.92 μg/well): 1.4 | effect on PHA and Con-A mitogenesis (in words) (spleen lymphocytes [1]; in vitro): no significant suppressive or enhancing effect
